What was measured:
[1] = test system: barnyardgrass; assay: Test A preemergence; type: in vivo, Echinochloa crus-galli; details: preemergence; for Barnyardgrass plant response rating (0 to 100 scale, 0 is no effect, 100 is complete control): visual injury approx. 10 days after treatment
How it was run: (§1)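 Visual injury rating, 0–100 (0 no effect, 100 complete control), vs untreated controls ~10 days after treatment in greenhouse. Pre: directed soil spray on seeded loam/sand. Post: 2–10 cm plants, 1–2 leaf stage. Formulation: non-phytotoxic solvent mix + surfactant.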

[2] = test system: kochia; assay: Test A preemergence; type: in vivo, Kochia scoparia; details: for Kochia plant response rating (0 to 100 scale): visual injury approx. 10 days after treatment
Excerpt: (§2) Seeds of plant species selected from barnyardgrass (Echinochloa crus-galli), kochia (Kochia scoparia), common ragweed (Ambrosia elation), Italian ryegrass (Lolium multiflorum), crabgrass, large (large crabgrass, Digitaria sanguinalis), foxtail, giant (giant foxtail, Setaria faberii), morningglory (Ipomoea spp.), pigweed (redroot pigweed, Amaranthus retroflexus), velvetleaf (Abutilon theophrasti), wheat (Triticum aestivum), and corn (Zea mays) were planted into a blend of loam soil and sand and treated preemergence with a directed soil spray using test chemicals formulated in a non-phytotoxic solvent mixture which included a surfactant.
(§3) At the same time, plants selected from these crop and weed species and also blackgrass (Alopecurus myosuroides), and galium (catchweed bedstraw, Galium aparine) were planted in pots containing the same blend of loam soil and sand and treated with postemergence applications of test chemicals formulated in the same manner. Plants ranged in height from 2 to 10 cm and were in the one- to two-leaf stage for the postemergence treatment. Treated plants and untreated controls were maintained in a greenhouse for approximately 10 days, after which time all treated plants were compared to untreated controls and visually evaluated for injury. Plant response ratings, summarized in Table A, are based on a 0 to 100 scale where 0 is no effect and 100 is complete control. A dash (-) response means no test result.

[3] = test system: common ragweed; assay: Test A preemergence; type: in vivo, Ambrosia elation; details: for Common Ragweed plant response rating (0 to 100 scale): visual injury approx. 10 days after treatment
Excerpt: as §2, §3

[4] = test system: Italian ryegrass; assay: Test A preemergence; type: in vivo, Lolium multiflorum; details: for Italian Ryegrass plant response rating (0 to 100 scale): visual injury approx. 10 days after treatment
How it was run: as §1

[5] = test system: foxtail, giant; assay: Test A preemergence; type: in vivo, Setaria faberii; details: preemergence; for Foxtail, Giant plant response rating (0 to 100 scale): visual injury approx. 10 days after treatment
How it was run: as §1

[6] = test system: pigweed; assay: Test A preemergence; type: in vivo, Amaranthus retroflexus; details: preemergence; for Pigweed plant response rating (0 to 100 scale): visual injury approx. 10 days after treatment
How it was run: as §1

[7] = test system: barnyardgrass; assay: Test A postemergence; type: in vivo, Echinochloa crus-galli
How it was run: as §1

[8] = test system: kochia; assay: Test A postemergence; type: in vivo, Kochia scoparia
How it was run: as §1

[9] = test system: common ragweed; assay: Test A postemergence; type: in vivo, Ambrosia elation
Excerpt: as §2, §3

[10] = test system: Italian ryegrass; assay: Test A postemergence; type: in vivo, Lolium multiflorum
How it was run: as §1

[11] = test system: foxtail, giant; assay: Test A postemergence; type: in vivo, Setaria faberii
How it was run: as §1

[12] = test system: pigweed; assay: Test A postemergence; type: in vivo, Amaranthus retroflexus
How it was run: as §1

[13] = test system: wheat; assay: Test A postemergence; type: in vivo, Triticum aestivum
How it was run: as §1

[14] = test system: corn; assay: Test A postemergence; type: in vivo, Zea mays
How it was run: as §1

[15] = test system: blackgrass; assay: Test A postemergence; type: in vivo, Alopecurus myosuroides
Excerpt: as §2, §3

[16] = test system: galium; assay: Test A postemergence; type: in vivo, Galium aparine
Excerpt: as §2, §3

[17] = test system: rice; assay: Test B flood; type: in vivo, Oryza sativa; details: 250 g ai/ha, visual rating on 0 to 100 scale (0 no effect, 100 complete control), 13 to 15 days
How it was run: (§4)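 Greenhouse assay lasting 13 to 15 days. Treatment was into water flooding pots 3 cm deep, at the 2-leaf stage, with that level sustained afterwards. Scores compare treated with control plants visually, 100 denoting complete control and 0 no effect; a dash marks no test result.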

[18] = test system: sedge, umbrella; assay: Test B flood; type: in vivo, Cyperus difformis; details: 250 g ai/ha, visual rating on 0 to 100 scale (0 no effect, 100 complete control), 13 to 15 days
How it was run: as §4

[19] = test system: ducksalad; assay: Test B flood; type: in vivo, Heteranthera limosa; details: 250 g ai/ha, visual rating on 0 to 100 scale (0 no effect, 100 complete control), 13 to 15 days
How it was run: as §4

[20] = test system: barnyardgrass; assay: Test B flood; type: in vivo, Echinochloa crus-galli; details: 250 g ai/ha, visual rating on 0 to 100 scale (0 no effect, 100 complete control), 13 to 15 days
How it was run: as §4

[21] = 500 g ai/ha, visual injury after approx. 10 days, 0 to 100 scale (0 no effect, 100 complete control)
[22] = Postemergence, 500 g ai/ha, 0 to 100 scale (0 no effect, 100 complete control)
[23] = postemergence, 125 g ai/ha, about 10 days, visual rating on 0 to 100 scale (0 no effect, 100 complete control)
[24] = Postemergence, 125 g ai/ha, 0 to 100 scale, 0 no effect, 100 complete control
[25] = 125 g ai/ha, visual injury, 0 to 100 scale, approx. 10 days

Row | Structure (SMILES) | Barnyardgrass plant response rating (0 to 100 scale, 0 is no effect, 100 is complete control) ([1]; 125 g ai/ha) | Barnyardgrass plant response rating [1, 21] | Kochia plant response rating (0 to 100 scale) ([2]; 125 g ai/ha) | Common Ragweed plant response rating [3, 21] | Italian Ryegrass plant response rating [4, 21] | Foxtail, Giant plant response rating [5, 21] | Barnyardgrass plant response rating [7, 22] | Kochia plant response rating [8, 22] | Common Ragweed plant response rating [9, 22] | Italian Ryegrass plant response rating [10, 22] | Foxtail, Giant plant response rating [11, 22] | Pigweed plant response rating [12, 22] | Wheat plant response rating [13, 22] | Corn plant response rating [14, 22] | Blackgrass plant response rating [15, 22] | Galium plant response rating [16, 22] | Plant response rating, Rice [17] | Plant response rating, Sedge, Umbrella [18] | Plant response rating, Ducksalad [19] | Plant response rating, Barnyardgrass [20] | further results
1 | CCONC(=O)c1cc(CC)n(Cc2cc(OC(F)F)nn2C)n1 [Compound 207] | 0 | 90 | 30 | 40 | 20 | 20 | 80 | 60 | 30 | 50 | 60 | 100 | 20 | 60 | 60 | 80 | 0 | 0 | 0 | 0 | Common Ragweed plant response rating (0 to 100 scale) ([3]; 125 g ai/ha): 0; Italian Ryegrass plant response rating (0 to 100 scale) ([4]; 125 g ai/ha): 0; Foxtail, Giant plant response rating (0 to 100 scale) ([5]; 125 g ai/ha): 0; Pigweed plant response rating (0 to 100 scale) ([6]; 125 g ai/ha): 50; Barnyardgrass plant response rating [7, 23]: 0; Kochia plant response rating [8, 24]: 30; Common Ragweed plant response rating [9, 23]: 0; Italian Ryegrass plant response rating [10, 24]: 0; Foxtail, Giant plant response rating [11, 23]: 0; Pigweed plant response rating [12, 24]: 60; Wheat plant response rating [13, 24]: 10; Corn plant response rating [14, 23]: 30; Blackgrass plant response rating [15, 23]: 0; Galium plant response rating [16, 24]: 40
2 | CCc1cc(C(=O)NC2CC2)nn1Cc1cc(OC(F)F)nn1C [Compound 211] | 0 | 70 | 50 | 40 | 20 | 80 | 50 | 90 | 20 | 30 | 60 | 100 | 20 | 40 | 50 | 70 | 0 | 0 | 0 | 0 | Common Ragweed plant response rating (0 to 100 scale) ([3]; 125 g ai/ha): 0; Italian Ryegrass plant response rating (0 to 100 scale) ([4]; 125 g ai/ha): 0; Foxtail, Giant plant response rating (0 to 100 scale) ([5]; 125 g ai/ha): 0; Pigweed plant response rating (0 to 100 scale) ([6]; 125 g ai/ha): 50; Barnyardgrass plant response rating [7, 24]: 0; Kochia plant response rating [8, 24]: 80; Common Ragweed plant response rating [9, 24]: 0; Italian Ryegrass plant response rating [10, 24]: 0; Foxtail, Giant plant response rating [11, 24]: 0; Pigweed plant response rating [12, 24]: 70; Wheat plant response rating [13, 24]: 0; Corn plant response rating [14, 24]: 30; Blackgrass plant response rating [15, 24]: 0; Galium plant response rating [16, 24]: 20
3 | CCc1cc(C(=O)NCC(F)(F)F)nn1Cc1cc(C(F)(F)F)no1 [Compound 123] | – | 100 | – | 50 | 30 | 100 | 60 | 90 | 40 | 30 | 90 | 100 | 10 | 60 | 50 | 80 | 10 | 60 | 60 | 20 | Barnyardgrass plant response rating [1, 25]: 0; Kochia plant response rating [2, 25]: 10; Kochia plant response rating [2, 21]: 100; Common Ragweed plant response rating [3, 25]: 10; Italian Ryegrass plant response rating [4, 25]: 0; Foxtail, Giant plant response rating [5, 25]: 20; Pigweed plant response rating [6, 25]: 70; Pigweed plant response rating [6, 21]: 100; Barnyardgrass plant response rating [7, 23]: 0; Kochia plant response rating [8, 23]: 50; Common Ragweed plant response rating [9, 23]: 10; Italian Ryegrass plant response rating [10, 23]: 10; Foxtail, Giant plant response rating [11, 23]: 0; Pigweed plant response rating [12, 23]: 70; Wheat plant response rating [13, 23]: 0; Corn plant response rating [14, 23]: 20; Blackgrass plant response rating [15, 23]: 10; Galium plant response rating [16, 23]: 10
